The results in this text go back to patent US5589373A, “Thermostable alkaline metalloprotease produced by a hyphomonas and preparation thereof” (priority 1995, dated 1996).

Data set [1] concerns H. jannaschiana extracellular protease. The experiment in a line: Effect of amino acids, casamino acids or (NH4)2SO4 on cell-free protease suspension (azocasein assay). It counts as biochemical, Hyphomonas jannaschiana VP3. Also noted: Enzyme activity (%) in cell free supernatant: concentration or dose not given beside the values. As to conditions: for Enzyme activity (%) in cell free supernatant: cell-free protease suspension, 10 minute incubation, same additions, control = 100. As for the experimental part:
(§1) Samples of the cell culture supernatants, the toluenized cells, and the cell lysates were each tested for protease activity using an azocasein assay, such as described by Long et al., J. Gen. Microbiol. 127:193-199 (1981). One unit of enzyme activity was considered equivalent to an increased absorbance of 0.1 units at a wavelength of 440 nm after a 30 minute incubation at 42° C.
In the alternative, after allowing protease synthesis and export to proceed for 2.5 hours, the cells were removed by centrifugation, and the supernatant was passed through a 0.22 μm filter. The cell-free protease suspension was then treated, as described above, with single amino acids, casamino acids, or (NH4)2 SO4. Then, enzyme activity was determined following a 10 minute incubation period.

Data set [2] relates to H. jannaschiana exoprotease. The experiment in a line: Chemical inhibition of protease activity in filtered culture supernatant. Type of data set: biochemical, Hyphomonas jannaschiana VP3. The settings on record: for protease activity after exposure to inhibitor (in words): 5 mM o-phenanthroline, 60 mM PMSF, 100 mM EDTA, 80 mM EGTA; for exoprotease activity in additional assays, data not shown (in words): concentration not given. As for the experimental part:
as §1
The effect of various protease inhibitors on the production of H. jannaschiana exoprotease was tested by measuring protease activity following the incubation of the cells with each inhibitor. Stationary phase cells, grown in MB, were pelleted and resuspended in fresh media at one-tenth of the original culture volume. The cell suspension was incubated at 37° C. for 2.5 hours to permit synthesis and export of exoprotease into the culture supernatant. Then the cells were removed by centrifugation and the supernatant was sterilized by filtration through a 0.22 μm filter.
Protease activity was measured after exposure to each inhibitor at 25° C. for 15 minutes. The inhibitors were added at the following final concentrations: 5 mM o-phenanthroline, 60 mM […] (PMSF), 10 mM and 25 mM p-chloromercuribenzoic acid (pCMB), 100 mM EDTA, 80 mM ethylene glycol bis(beta-amino-ethylether)N,N,N',N'-tetraacetic acid (EGTA).
Each bar represents treatment of the exoprotease with the following: 1=untreated exoprotease; 2=o-phenan-throline; 3=o-phenanthroline and ZnCl; 4=ZnCl; 5=EGTA; 6=EGTA and CaCl; 7=CaCl; 8=EDTA; 9=EDTA and ZnCl; 10=EDTA and CaCl; 11=pCMB (10 mM, final conc.); 12=pCMB (25 mM, final conc.); and 13=PMSF. The enzyme activity was expressed as a percentage of the activity measured in the untreated control.

Data set [3] deals with H. jannaschiana exoprotease. The experiment in a line: Recovery of chemically inhibited protease activity by Zn2+ and Ca2+. As to conditions: for restoration of activity to EDTA-inactivated enzyme: 100 mM EDTA, ZnCl2 or CaCl2, 25° C.; for effect of additional ions on activity of the native protease: no inhibitor. It counts as biochemical, Hyphomonas jannaschiana VP3. As for the experimental part:
The ability of the divalent cations Zn^2+ and Ca^2+ to restore enzyme activity to inactivated exoprotease was examined by introducing either 5 mM ZnCl2 or 100 mM CaCl2 at a 1:1 molar ratio of ion to inhibitor to the preparations described in Example 4. Following incubation at 25° C. for 15 minutes, protease activity was assayed.

Data set [4] concerns H. jannaschiana stationary phase cells. Nature of the data set: Repression of exoprotease synthesis in stationary phase cells in growth media (azocasein assay). As to conditions: for activity / activity at 100000 µM: Hyphomonas jannaschiana, read-out: Enzyme activity (%) in growth media. It counts as cell-based, Hyphomonas jannaschiana VP3. How it is done:
as §1
The stationary phase cells were resuspended in a one-tenth volume of MB, then incubated for 30 minutes at 37° C. Exoprotease activity was determined at hourly intervals following introduction of single amino acids at a final concentrations of 0.1% (v/v) o The assay was conducted over a period of 3 hours.
In a similar manner, protease activity was determined following the introduction of 100 mM (NH4)2 SO4 (ammonium sulfate) or 1% casamino acids to the growth medium.

Data set [5] relates to functional extracellular protease. The experiment in a line: Quinacrine on functional extracellular protease activity. It counts as biochemical, Hyphomonas jannaschiana.
The subject of data set [6] is actively growing culture of H. jannaschiana. The experiment in a line: Quinacrine on an actively growing culture (optical density and extracellular enzyme activity). It counts as cell-based, Hyphomonas jannaschiana. The settings on record: 0.025 mM quinacrine. As for the experimental part: (§2) Thus, protease export was examined in the presence of quinacrine, a signal peptidase inhibitor. Protease export in the presence of quinacrine was examined using two approaches. An actively growing culture of H. jannaschiana was monitored with respect to both optical density at 550 nm and extracellular enzyme activity in the presence of 0.025 mM quinacrine. In order to eliminate the effect of quinacrine on H. jannaschiana growth, cells were initially propagated to stationary phase, and subsequently maintained in the non-proliferating state by 10-fold concentration in fresh media which was supplemented with 0.025 mM quinacrine.

Data set [7] deals with H. jannaschiana stationary phase cells. The experiment in a line: Inhibition of protease export by quinacrine in non-proliferating stationary phase cells. It counts as cell-based. The settings on record: Hyphomonas jannaschiana; for activity at 25 µM: 0.025 mM quinacrine, read-out: Enzyme activity relative to untreated control. As for the experimental part:
as §2

Data set [8] is described as follows: Thermal stability of H. jannaschiana exoprotease (azocasein assay). The settings on record: for enzyme activity remaining after incubation at 75° C. for 30 minutes: filtered stationary phase culture supernatant, pH 9. It counts as physicochemical, Hyphomonas jannaschiana. As for the experimental part: Filtered supernatant containing Hyphomonas jannaschiana exoprotease was maintained at 75° C. and 100° C. for various periods of time. Then, the enzyme was allowed to recalibrate to 25° C., and subsequently assayed for protease activity using the azocasein assay.

A short description of data set [9]: Properties of the purified thermostable alkaline metalloprotease (pH and temperature optimum, pH stability, pI). Also noted: species or system Hyphomonas jannaschiana.
The mark [10] stands for this setting: stationary phase cells in one-tenth volume MB, 37° C., single amino acids 0.1% (v/v), control = 100.
Where [11] appears, read: stationary phase cells in one-tenth volume MB, 37° C., single amino acids 0.1% (v/v), 100 mM (NH4)2SO4 or 1% casamino acids, control = 100.
The mark [12] stands for this setting: listed as alkaline exoprotease produced by H. jannaschiana.

Entries after “also recorded” stand apart in the source; their conditions may differ. Read-outs that look alike come from different tables or passages of the source.

In the case of `C[C@H](N)C(=O)O` [alanine], the “Enzyme activity (%) in cell free supernatant” value in data set [1] is listed as 56%.

With `NC(=O)CC[C@H](N)C(=O)O` [glutamine], the “Enzyme activity (%) in cell free supernatant” value in data set [1] is given as 52%.

Turning to `O=C(O)CN(CCN(CC(=O)O)CC(=O)O)CC(=O)O` [EDTA, ethylenediaminetetra-acetic acid], the “EDTA concentration necessary to inhibit enzyme activity” value in data set [2] is on record as “greater than 10^-2 M”. Further, the “protease activity after exposure to inhibitor (in words)” value in data set [2] (25° C., 15 minutes) is “inhibited”.

Turning to `CC(C)CC(NC(=O)C1OC1C(=O)O)C(=O)NCCCCNC(=N)N` (centres unmarked) [E64], the “exoprotease activity in additional assays, data not shown (in words)” value in data set [2] is reported as “not affected”.

For the molecule `O=S(=O)(F)Cc1ccccc1` [PMSF, phenylmethyl sulfonamide fluoride], the “protease activity after exposure to inhibitor (in words)” value in [2] (25° C., 15 minutes) is recorded as “unaffected; also recorded: not affected”.

Regarding `O=C(O)CN(CCOCCOCCN(CC(=O)O)CC(=O)O)CC(=O)O` [EGTA, ethylene glycol bis(beta-amino-ethylether)N,N,N',N'-tetraacetic acid], the “protease activity after exposure to inhibitor (in words)” value in data set [2] (25° C., 15 minutes) is “totally inhibited”.

For the molecule `[Cl-].[Cl-].[Zn+2]` [Zn^2+, ZnCl2], in data set [3] (5 mM o-phenanthroline, 5 mM ZnCl2, 1:1 ion to inhibitor, 25° C., 15 minutes), the “restoration of activity to o-phenanthroline-inhibited exoprotease” value is recorded as “reactivated; also recorded: restored”. Also, the “restoration of activity to EDTA-inactivated enzyme” value in data set [3] (15 minutes) is “partially restored”. Besides, in data set [3], the “effect of additional ions on activity of the native protease” value is “significantly increased”.

On to `CC(C)C[C@H](N)C(=O)O` [leucine], for which, in data set [1], the “Enzyme activity (%) in cell free supernatant” value turned out to be 69%.

In the case of `OCCS` [mercaptoethanol], in data set [2], the “exoprotease activity in additional assays, data not shown (in words)” value is given as “abolished”.

Regarding `[Ca+2].[Cl-].[Cl-]` [Ca^2+, CaCl2], the “restoration of activity to EGTA-inhibited exoprotease” value in data set [3] (80 mM EGTA, CaCl2 at 1:1 ion to inhibitor, 25° C., 15 minutes) is “reversible; also recorded: restored”. Moreover, in data set [3] (15 minutes), the “restoration of activity to EDTA-inactivated enzyme” value is given as “partially restored”. In addition, the “effect of additional ions on activity of the native protease” value in data set [3] is recorded as “no detectable effect”.

Regarding `N[C@@H](CC(=O)O)C(=O)O` [aspartic acid], in [1], the “Enzyme activity (%) in cell free supernatant” value was found to be 60%. Besides, in data set [4] (setting [10]), the activity stood at 79%.

`N[C@@H](CCC(=O)O)C(=O)O` [glutamic acid]: the “Enzyme activity (%) in cell free supernatant” value in [1] turned out to be 52%. The activity at 100000 µM in [4] turned out to be 86%.

Consider `N.N.O=S(=O)(O)O` [(NH4)2 SO4, ammonium sulfate], for which the “Enzyme activity (%) in cell free supernatant” value in [1] is 100%. Moreover, the “extracellular enzyme activity in cell-free growth media (in words)” value in data set [1] (exposed to the added substance) is listed as “no affect”. The “reduction in the synthesis of the exoprotease” value in data set [4] (100 mM (NH4)2SO4) is recorded as “approximately 50%”. The “Enzyme activity (%) in growth media” value in [4] (setting [11]) was 56%.

In the case of `N[C@@H](Cc1c[nH]c2ccccc12)C(=O)O` [tryptophan], in data set [1], the “Enzyme activity (%) in cell free supernatant” value is on record as 56%.

With `O=C(O)c1cc[c]([Hg][Cl])cc1` [pCMB, p-chloromercuribenzoic acid], the “protease activity after exposure to low concentration of pCMB (in words)” value in data set [2] (10 mM pCMB, 25° C., 15 minutes) was “unaffected; also recorded: not affected”. Moreover, the “protease activity after exposure to high concentration of pCMB (in words)” value in data set [2] (25 mM pCMB, 25° C., 15 minutes) was “reduced”.

Take `O=C(O)[C@@H]1CCCN1` [proline]: in [1], the “Enzyme activity (%) in cell free supernatant” value is recorded as 93%. Further, in data set [4] (setting [11]), the activity at 100000 µM worked out at 108%.

`CCN(CC)CCCC(C)Nc1c2ccc(Cl)cc2nc2ccc(OC)cc12` (centres unmarked) [quinacrine]: the “effect on functional extracellular protease activity (in words)” value in data set [5] is listed as “no affect”. The “cell density and exoprotease activity after an additional 6 hour growth period (in words)” value in data set [6] is listed as “returned to normal levels”. Also, the inhibition of growth at 25 µM in data set [6] (Hyphomonas jannaschiana, 7 h, seven hours after treatment, OD 550 nm, read-out: reduction of optical density of the culture vs untreated cells) came out at 48%. Also, the inhibition at 25 µM in data set [6] (Hyphomonas jannaschiana, 7 h, seven hours after treatment, read-out: exoprotease activity diminished vs untreated cells) was determined as 73%; in [7] (40 min, 40 minutes after the addition of quinacrine, read-out: reduction in exported enzyme), 67%. In addition, the activity at 25 µM came out at 100% in [7] (0.5 h, time 30 min); 33% in data set [7] (40 min, time 40 min); 50% in [7] (1 h, time 60 min); 78% in data set [7] (1.5 h, time 90 min); 82% in data set [7] (2 h, time 120 min); 90% in [7] (3 h, time 180 min).

Turning to `c1cnc2c(c1)ccc1cccnc12` [o-phenanthroline], the “protease activity after exposure to inhibitor (in words)” value in data set [2] (25° C., 15 minutes) was “totally inhibited”.

Consider `N[C@@H](CO)C(=O)O` [serine], for which, in data set [1], the “Enzyme activity (%) in cell free supernatant” value was 64%. Further, the activity in [4] (setting [10]) worked out at 79%.

With `NCC(=O)O` [glycine], the “Enzyme activity (%) in cell free supernatant” value in data set [1] came out at 82%. Further, in [4] (setting [11]), the activity at 100000 µM was 69%.

`N[C@@H](Cc1c[nH]cn1)C(=O)O` [histidine]: the “Enzyme activity (%) in cell free supernatant” value in data set [1] is 83%. In data set [4] (setting [10]), the activity came out at 87%.

B1: H. jannaschiana exoprotease: extracellular thermostable alkaline metalloprotease, approximately 80,000 daltons, produced by Hyphomonas jannaschiana VP3 (protein)
chain: EICRIVMDGHCEKQGDAECHDDQQSARPADQRINQDVEQVDDQFEEQGPGRNVCGINVFGS
For B1, in [8], the “activity remaining after boiling at 100° C. for 5 minutes” value is listed as “at least 41%” and the “enzyme activity remaining after incubation at 75° C. for 30 minutes” value is reported as “at least 60%”. Besides, the “decrease of exoprotease activity after incubation at 75° C. for 30 minutes” value in data set [8] (azocasein assay) was “about 40%”. In addition, the “reduction of extracellular protease activity after 100° C. (boiling) for 5 minutes” value in data set [8] (filtered culture supernatant) is listed as 41%. In data set [8] (setting [12]), the “enzyme activity remaining after incubation at 75° C. for 30 minutes” value was “Over 60%” and the “proteolytic activity after boiling for 5 minutes (in words)” value is recorded as “failed to destroy”. The “proteolytic activity after boiling for 5 minutes (in words)” value in [8] (listed as thermostable alkaline exoprotease) is “did not destroy”. The “isoelectric point pI” value in data set [9] was found to be 4.8. The molecule also showed an optimal temperature in data set [9] (reacted at pH 9) of 45 °C. Also, the “optimal pH” value in data set [9] (reaction temperature of about 60° to 65° C.) is on record as “approximately 9.5”.
